This is an account of results in US4346075A, “Antibiotic DC-11 and process for production thereof” (Kyowa Hakko Kogyo Co., Ltd., priority 1980, dated 1982).

For orientation: LD50 means the dose at which mortality reaches 50%. A low value points to a more toxic substance.

The test system of data set [1] is Lymphocytic leukemia P-388 tumor. Put plainly: effect on Lymphocytic leukemia P-388 tumor. To be noted: 24 hours following implantation. In kind it is in vivo, male CDF1 mice. As to the method:
Five male CDF1 mice having a weight of about 22 g are used for each group as test animals, and 1×10^6 cells of Lymphocytic leukemia P-388 tumor are implanted intraperitoneally in the test animals. Twenty-fours hours following implantation, 0.2 ml PBS solution containing DC-11 in various concentrations is administered intraperitoneally.
For comparison, 0.2 ml PBS solution containing mitomycin C is administered to a group of test animals intraperitoneally at the same time as the test compound.
The average survival period (ASP: days) and T/C (T: average survival days of the groups administered with test compound, C: average survival days of the control group) after implantation are shown in the following Table 6.

In data set [2] the test system is Sarcoma 180 ascites tumor. Put plainly: effect on sarcoma 180 ascites tumor. Format: in vivo, male ddY-strain mice. To be noted: seven days after implantation. As to the method: Six male ddY-strain mice having a weight of 20 g are used for each group as test animals; and 5×10^6 cells of Sarcoma 180 ascites tumor are implanted in the animals. After 24 hours following implantation, 0.2 ml phosphate buffered saline (PBS) containing DC-11 in various concentrations is administered intraperitoneally. PBS comprises 0.8 g/dl NaCl, 0.02 g/dl KCl, […] Na2 HPO4, 0.02 g/dl KH2 PO4 (pH 7.2).
For comparison, 0.2 ml PBS solution containing mitomycin C is administered to a group of amimals intraperitoneally at the same time as the test compound.
Seven days after implantation, the average tumor volume (mm^3) and T/C (T: average tumor volume of test compound, C: that of control) are determined.

A short description of data set [3]: solubility. Format: physicochemical.
The subject of data set [4] is Shigella sonnei ATCC 9290. Put plainly: in vitro antibacterial spectrum, disc method (pH 8.0). The following applies: ATCC9290, Shigella sonnei ATCC 9290, disc method, read-out: Minimum Inhibitory Concentration (MIC). Format: cell-based. The text has this: (§1) The in vitro antibacterial spectra of DC-11 determined by the disc method (pH 8.0) is illustrated in the following Table 4.

For data set [5], the system named is Klebsiella pneumoniae ATCC 10031. The description is as above. In kind it is cell-based. To be noted: ATCC10031, Klebsiella pneumoniae ATCC 10031, disc method, read-out: Minimum Inhibitory Concentration (MIC).
Text: as §1

The subject of data set [6] is Escherichia coli ATCC 26. Described as above. Format: cell-based. The following applies: ATCC26, Escherichia coli ATCC 26, disc method, read-out: Minimum Inhibitory Concentration (MIC).
Text: as §1

In data set [7] the test system is Staphylococcus aureus ATCC 6538 P. The data set is described as above. The following applies: ATCC6538, read-out: Minimum Inhibitory Concentration (MIC). Format: cell-based.
Text: as §1

In data set [8] the test system is Salmonella typhosa ATCC 9992. The description is as above. Format: cell-based. To be noted: Salmonella enterica, pH 8, read-out: Minimum Inhibitory Concentration (MIC).
Text: as §1

In data set [9] the test system is Bacillus subtilis No. 10707. The description is as above. Format: cell-based. The following applies: Bacillus subtilis No. 10707, disc method, read-out: Minimum Inhibitory Concentration (MIC).
Text: as §1

A short description of data set [10]: acute toxicity, intraperitoneal, mice. To be noted: mouse, in vivo, ip, intraperitoneally.

In brackets after ≈: the same amount, converted by molar mass. Bounds are passed on as bounds.

As to `CO[C@@]12[C@H](COC(N)=O)C3=C(C(=O)C(C)=C(N)C3=O)N1C[C@@H]1N[C@@H]12` [Mitomycin C, mitomycin C, reference compound], in [1] (4.2 mg/Kg i.p.), the “T/C (average survival days, test group / control group)” value was 1.51 and the “average survival period (ASP)” value is 14.2 days. In data set [2] (4.2 mg/Kg i.p.), the “T/C (average tumor volume of test compound / control)” value was determined as 0.32 and the “V: average tumor volume” value came out at 450 mm^3.

In the case of `COC(=O)NC1C(C)OC(OC2CC=C(C)C3C=CC4C(OC5CC(OC6CCC(OC7CC(O)C(OC8CCC(O)C(C)O8)C(C)O7)C(C)O6)C(OC(C)=O)C(C)O5)C(C)CC(C)C4C3(C)C(=O)C3=C(O)C4(CC(C=O)=CC(O)C4C=C2C)OC3=O)CC1(C)[N+](=O)[O-]` (centres unmarked) [DC-11], the Solubility entry in data set [3] (benzene and water) is on record as “slightly soluble”; in data set [3] (ethylether, petroleum ether and n-hexane), “insoluble”; in data set [3] (methanol, ethanol, butanol, acetone, ethyl acetate and chloroform), “soluble”. Moreover, the “T/C (average survival days, test group / control group)” value is recorded as 1.20 in data set [1] (6.25 mg/Kg i.p.), 1.43 in [1] (12.5 mg/Kg i.p.) and 1.38 in [1] (25.0 mg/Kg i.p.). The “average survival period (ASP)” value amounted to 11.2 days in data set [1] (6.25 mg/Kg i.p.), 13.4 days in data set [1] (12.5 mg/Kg i.p.) and 13.0 days in data set [1] (25.0 mg/Kg i.p.). Moreover, the “T/C (average tumor volume of test compound / control)” value in data set [2] (25 mg/Kg i.p.) came to 0.78; in data set [2] (50 mg/Kg i.p.), 0.52; in data set [2] (70 mg/Kg i.p.), 0.42. Besides, the “V: average tumor volume” value stood at 1096 mm^3 in data set [2] (25 mg/Kg i.p.), 730 mm^3 in data set [2] (50 mg/Kg i.p.) and 590 mm^3 in [2] (70 mg/Kg i.p.). The MIC in data set [4] is over 100 µg/mL; in [5], over 100 µg/mL; in [6], over 100 µg/mL; in data set [7] it was 20 µg/mL (≈ 15.2 µM); in [8], over 100 µg/mL; in data set [9] it was 0.1 µg/mL (≈ 0.0761 µM). In data set [10], this compound showed an LD50 of 54 mg/kg.
